The target in this test is T1, Ubiquitin carboxyl-terminal hydrolase 28 (Homo sapiens, UniProt Q96RU2).
T1 sequence (Q96RU2 whole entry): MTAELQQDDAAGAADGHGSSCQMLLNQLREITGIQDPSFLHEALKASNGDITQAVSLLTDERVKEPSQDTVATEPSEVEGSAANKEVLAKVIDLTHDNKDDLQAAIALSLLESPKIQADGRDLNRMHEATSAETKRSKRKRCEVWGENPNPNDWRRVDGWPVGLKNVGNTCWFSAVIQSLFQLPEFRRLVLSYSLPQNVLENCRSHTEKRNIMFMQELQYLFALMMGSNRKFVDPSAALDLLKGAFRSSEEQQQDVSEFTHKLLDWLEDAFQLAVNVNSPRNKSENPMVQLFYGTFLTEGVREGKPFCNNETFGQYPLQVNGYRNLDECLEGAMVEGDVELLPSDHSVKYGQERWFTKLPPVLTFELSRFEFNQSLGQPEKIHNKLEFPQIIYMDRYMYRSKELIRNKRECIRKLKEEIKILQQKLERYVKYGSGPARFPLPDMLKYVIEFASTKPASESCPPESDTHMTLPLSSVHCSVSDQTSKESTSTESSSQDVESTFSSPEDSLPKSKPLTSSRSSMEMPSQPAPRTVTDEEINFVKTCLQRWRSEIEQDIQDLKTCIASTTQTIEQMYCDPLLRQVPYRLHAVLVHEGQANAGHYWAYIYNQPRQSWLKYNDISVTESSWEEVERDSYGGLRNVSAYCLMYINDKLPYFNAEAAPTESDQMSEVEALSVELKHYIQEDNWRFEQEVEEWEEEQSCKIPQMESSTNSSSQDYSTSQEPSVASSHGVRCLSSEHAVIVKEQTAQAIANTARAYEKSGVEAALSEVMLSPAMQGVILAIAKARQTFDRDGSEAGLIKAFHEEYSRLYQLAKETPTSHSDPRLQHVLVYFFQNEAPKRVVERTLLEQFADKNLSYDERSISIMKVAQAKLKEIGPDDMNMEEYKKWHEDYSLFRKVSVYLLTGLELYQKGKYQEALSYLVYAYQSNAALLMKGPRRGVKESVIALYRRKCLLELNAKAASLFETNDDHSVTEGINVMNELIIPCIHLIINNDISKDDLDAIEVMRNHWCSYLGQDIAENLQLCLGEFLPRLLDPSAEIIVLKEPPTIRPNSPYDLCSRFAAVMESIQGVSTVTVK
As to the kind of experiment: Biochemical Assay: Ubiquitin-Rhodamine 110 Assay for USP28 Activity: Each assay was performed in a final volume of 20 μL in assay buffer containing 20 mM Tris-HCl (pH 8.0, (1M Tris-HCl, pH 8.0 solution; Corning 46-031-CM)), 2 mM CaCl2 (1M Calcium Chloride solution; Sigma #21114) 2 mM BME (2-Mercaptoethanol; Sigma 63689-25ML-F), 0.01% Prionex (0.22 μM filtered, Sigma #G-0411), and 0.01% Triton X-100. Stock compound solutions were stored at −20° C. as 10 mM in DMSO. Up to 1 month prior to the assay, 2 mM test compounds were pre-dispensed into assay plates (Black, low volume; Corning #3820) and frozen at −20° C. Prestamped assay plates were allowed to come to room temperature on the day of the assay. For the screen, 100 nL of 2 mM was pre-dispensed for a final screening concentration of 10 μM (DMSO(fc)=0.5%). […].

The IC50 is the concentration at which inhibition is half-maximal. Consider `Cc1cnc2c(N)c(C(=O)NCCc3ccc(N4CC5CCC(C4)N5)cc3)sc2n1`, for which the IC50 was < 200 nM.

Source of the values: ChEMBL document CHEMBL5729103, “Thienopyrazine carboxamides as ubiquitin-specific protease inhibitors” (2022).
